Values quoted from earlier work in paper PMC9851200, “Multiparameter phenotypic screening for endogenous TFEB and TFE3 translocation identifies novel chemical series modulating lysosome function” (Autophagy, 2022).

Experiments:
Set-up in all cases: method as in original PKIS2 published data
[1] = target: kinases (KINOMEscan panel) (Homo sapiens, UniProt Q9UIK4); conditions: kinase DAPK2; Published KINOMEscan; ref original PKIS2 published data; cited from earlier work
[2] = target: T1, kinases (KINOMEscan panel) (Homo sapiens, UniProt P25098); conditions: Published KINOMEscan; ref original PKIS2 published data; cited from earlier work
T1 sequence (P25098 1-689): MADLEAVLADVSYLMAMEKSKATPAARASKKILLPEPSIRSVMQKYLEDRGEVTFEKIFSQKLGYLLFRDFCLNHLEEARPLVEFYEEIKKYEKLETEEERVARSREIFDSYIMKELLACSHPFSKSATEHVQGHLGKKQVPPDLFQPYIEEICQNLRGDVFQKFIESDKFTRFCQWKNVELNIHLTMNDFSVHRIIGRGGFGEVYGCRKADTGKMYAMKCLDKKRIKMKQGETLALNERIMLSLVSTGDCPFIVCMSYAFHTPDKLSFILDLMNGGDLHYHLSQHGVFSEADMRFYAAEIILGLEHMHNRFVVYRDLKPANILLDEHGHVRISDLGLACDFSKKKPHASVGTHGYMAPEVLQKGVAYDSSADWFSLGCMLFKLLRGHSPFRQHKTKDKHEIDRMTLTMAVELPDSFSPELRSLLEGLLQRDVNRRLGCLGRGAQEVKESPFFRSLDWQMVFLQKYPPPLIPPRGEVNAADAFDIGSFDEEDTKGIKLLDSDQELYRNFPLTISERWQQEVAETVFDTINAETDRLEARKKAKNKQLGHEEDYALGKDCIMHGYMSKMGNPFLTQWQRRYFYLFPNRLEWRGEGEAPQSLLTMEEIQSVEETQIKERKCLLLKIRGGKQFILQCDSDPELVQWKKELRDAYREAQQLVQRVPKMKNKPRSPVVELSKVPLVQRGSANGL

[3] = target: kinases (KINOMEscan panel) (Homo sapiens, UniProt Q9Y6M4); conditions: CSNK1G3; Published KINOMEscan; ref original PKIS2 published data; cited from earlier work
Sequence of kinases (KINOMEscan panel) (Homo sapiens, UniProt Q9Y6M4) (Q9Y6M4 whole entry): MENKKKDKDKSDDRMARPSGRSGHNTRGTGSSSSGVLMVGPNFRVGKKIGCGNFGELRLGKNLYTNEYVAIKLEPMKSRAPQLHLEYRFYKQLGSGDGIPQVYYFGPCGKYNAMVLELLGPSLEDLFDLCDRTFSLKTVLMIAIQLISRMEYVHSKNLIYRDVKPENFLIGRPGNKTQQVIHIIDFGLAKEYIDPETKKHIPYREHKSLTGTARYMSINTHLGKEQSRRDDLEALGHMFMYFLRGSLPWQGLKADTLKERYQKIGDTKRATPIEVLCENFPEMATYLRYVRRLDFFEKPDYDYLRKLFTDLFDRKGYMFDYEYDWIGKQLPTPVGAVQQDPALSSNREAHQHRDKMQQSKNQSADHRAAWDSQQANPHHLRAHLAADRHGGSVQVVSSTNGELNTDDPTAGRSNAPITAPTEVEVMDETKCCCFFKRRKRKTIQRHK

[4] = target: T2, kinases (KINOMEscan panel) (Homo sapiens, UniProt Q8N568); conditions: Published KINOMEscan; ref original PKIS2 published data; cited from earlier work
T2 sequence (Q8N568 1-766): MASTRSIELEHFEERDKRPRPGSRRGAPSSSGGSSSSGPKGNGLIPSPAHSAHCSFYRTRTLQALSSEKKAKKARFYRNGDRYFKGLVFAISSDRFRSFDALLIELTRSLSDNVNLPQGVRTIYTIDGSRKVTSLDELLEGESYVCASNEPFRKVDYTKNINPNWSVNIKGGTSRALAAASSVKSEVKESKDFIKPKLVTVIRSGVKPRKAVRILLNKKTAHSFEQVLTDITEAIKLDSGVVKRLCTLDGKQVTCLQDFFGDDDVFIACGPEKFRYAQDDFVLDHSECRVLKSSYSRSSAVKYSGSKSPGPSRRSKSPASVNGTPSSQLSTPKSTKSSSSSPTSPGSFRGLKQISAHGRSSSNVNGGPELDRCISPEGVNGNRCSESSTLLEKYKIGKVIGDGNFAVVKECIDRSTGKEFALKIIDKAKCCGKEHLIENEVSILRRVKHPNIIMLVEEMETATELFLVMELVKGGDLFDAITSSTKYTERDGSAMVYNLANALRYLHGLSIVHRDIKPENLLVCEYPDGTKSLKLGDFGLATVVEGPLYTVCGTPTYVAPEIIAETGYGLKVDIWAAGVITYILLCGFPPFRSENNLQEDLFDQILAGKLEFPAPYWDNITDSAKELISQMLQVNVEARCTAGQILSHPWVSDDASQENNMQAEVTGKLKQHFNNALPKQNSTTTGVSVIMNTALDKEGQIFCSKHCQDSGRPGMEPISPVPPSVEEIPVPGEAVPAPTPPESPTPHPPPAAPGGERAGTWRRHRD

[5] = target: T3, kinases (KINOMEscan panel) (Homo sapiens, UniProt P29322); conditions: kinase EPHA8; Published KINOMEscan; ref original PKIS2 published data; cited from earlier work
T3 sequence (P29322 28-1005): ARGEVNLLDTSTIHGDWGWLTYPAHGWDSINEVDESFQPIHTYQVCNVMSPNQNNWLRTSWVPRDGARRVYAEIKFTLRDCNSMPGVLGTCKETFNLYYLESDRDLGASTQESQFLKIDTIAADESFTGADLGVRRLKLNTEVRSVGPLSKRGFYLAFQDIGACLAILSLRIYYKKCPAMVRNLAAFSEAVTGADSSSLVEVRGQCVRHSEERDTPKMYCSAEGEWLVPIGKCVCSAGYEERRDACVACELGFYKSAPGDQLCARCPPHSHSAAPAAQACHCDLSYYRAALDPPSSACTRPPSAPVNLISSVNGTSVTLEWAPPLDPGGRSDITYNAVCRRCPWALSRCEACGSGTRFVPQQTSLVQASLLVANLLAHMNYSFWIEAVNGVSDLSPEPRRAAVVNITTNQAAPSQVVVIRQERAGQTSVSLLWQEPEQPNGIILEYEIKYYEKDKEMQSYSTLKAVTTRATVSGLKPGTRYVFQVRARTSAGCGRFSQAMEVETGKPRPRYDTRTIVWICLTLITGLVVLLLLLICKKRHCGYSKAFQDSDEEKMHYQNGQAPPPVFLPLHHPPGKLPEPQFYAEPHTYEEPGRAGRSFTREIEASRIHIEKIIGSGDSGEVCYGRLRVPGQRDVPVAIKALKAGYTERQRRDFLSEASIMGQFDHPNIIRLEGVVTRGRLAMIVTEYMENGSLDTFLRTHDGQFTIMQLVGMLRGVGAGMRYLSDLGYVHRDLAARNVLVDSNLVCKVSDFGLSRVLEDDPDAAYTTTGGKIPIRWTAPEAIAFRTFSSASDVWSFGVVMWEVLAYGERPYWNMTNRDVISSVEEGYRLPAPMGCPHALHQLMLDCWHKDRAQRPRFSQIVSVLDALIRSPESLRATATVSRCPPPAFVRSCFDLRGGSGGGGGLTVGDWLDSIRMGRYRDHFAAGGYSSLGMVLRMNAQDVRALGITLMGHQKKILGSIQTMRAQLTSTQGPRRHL

[6] = target: kinases (KINOMEscan panel) (Homo sapiens, UniProt P30291); conditions: WEE1; Published KINOMEscan; ref original PKIS2 published data; cited from earlier work
Sequence of kinases (KINOMEscan panel) (Homo sapiens, UniProt P30291) (P30291 whole entry): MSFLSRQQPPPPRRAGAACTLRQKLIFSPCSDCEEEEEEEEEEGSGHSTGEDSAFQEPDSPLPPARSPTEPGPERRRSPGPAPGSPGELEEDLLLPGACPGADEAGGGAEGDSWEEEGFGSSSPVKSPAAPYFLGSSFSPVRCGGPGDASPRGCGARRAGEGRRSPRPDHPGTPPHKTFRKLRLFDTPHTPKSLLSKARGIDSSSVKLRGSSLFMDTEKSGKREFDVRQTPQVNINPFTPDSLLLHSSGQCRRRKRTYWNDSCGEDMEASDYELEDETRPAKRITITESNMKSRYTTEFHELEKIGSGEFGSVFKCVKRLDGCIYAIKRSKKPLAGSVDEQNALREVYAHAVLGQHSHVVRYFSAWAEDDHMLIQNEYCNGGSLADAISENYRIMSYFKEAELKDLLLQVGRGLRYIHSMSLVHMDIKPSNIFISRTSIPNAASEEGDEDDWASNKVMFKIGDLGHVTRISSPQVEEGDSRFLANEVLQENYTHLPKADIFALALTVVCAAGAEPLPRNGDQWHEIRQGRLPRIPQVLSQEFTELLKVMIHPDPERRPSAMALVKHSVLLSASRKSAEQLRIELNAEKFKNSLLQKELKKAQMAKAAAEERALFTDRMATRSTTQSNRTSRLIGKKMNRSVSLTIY

[7] = target: kinases (KINOMEscan panel) (Homo sapiens, UniProt Q06187); conditions: kinase BTK; Published KINOMEscan; ref original PKIS2 published data; cited from earlier work
Sequence of kinases (KINOMEscan panel) (Homo sapiens, UniProt Q06187) (Q06187 whole entry): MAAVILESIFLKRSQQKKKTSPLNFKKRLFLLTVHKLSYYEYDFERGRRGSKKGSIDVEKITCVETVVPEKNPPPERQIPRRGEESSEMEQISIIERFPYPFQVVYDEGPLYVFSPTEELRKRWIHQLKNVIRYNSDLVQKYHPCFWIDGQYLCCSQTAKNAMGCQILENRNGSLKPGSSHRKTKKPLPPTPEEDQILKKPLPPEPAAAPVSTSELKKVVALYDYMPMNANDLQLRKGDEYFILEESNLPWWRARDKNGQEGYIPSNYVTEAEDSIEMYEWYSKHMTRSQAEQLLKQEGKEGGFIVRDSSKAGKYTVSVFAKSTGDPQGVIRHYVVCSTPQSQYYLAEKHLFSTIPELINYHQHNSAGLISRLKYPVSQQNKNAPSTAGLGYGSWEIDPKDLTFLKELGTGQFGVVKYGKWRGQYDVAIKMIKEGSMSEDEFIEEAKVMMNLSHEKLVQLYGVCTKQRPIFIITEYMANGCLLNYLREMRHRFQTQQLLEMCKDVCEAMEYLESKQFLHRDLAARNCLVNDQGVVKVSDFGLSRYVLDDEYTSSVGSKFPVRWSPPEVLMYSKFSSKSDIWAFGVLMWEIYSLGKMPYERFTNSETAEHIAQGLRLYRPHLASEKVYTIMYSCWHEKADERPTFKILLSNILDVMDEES

Sequence of kinases (KINOMEscan panel) (Homo sapiens, UniProt Q9UIK4) (Q9UIK4 whole entry): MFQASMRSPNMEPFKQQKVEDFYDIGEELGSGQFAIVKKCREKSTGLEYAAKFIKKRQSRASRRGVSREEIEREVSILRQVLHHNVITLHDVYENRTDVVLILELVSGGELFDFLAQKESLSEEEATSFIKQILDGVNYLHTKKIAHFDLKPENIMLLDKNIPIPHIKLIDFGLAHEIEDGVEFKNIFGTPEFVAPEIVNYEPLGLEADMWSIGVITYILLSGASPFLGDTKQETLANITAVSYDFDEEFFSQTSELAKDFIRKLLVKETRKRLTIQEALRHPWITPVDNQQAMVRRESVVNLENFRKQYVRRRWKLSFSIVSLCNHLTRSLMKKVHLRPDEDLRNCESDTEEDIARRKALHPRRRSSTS

Cc1cccc(-c2nc(Nc3ccncc3)c3ccccc3n2)n1 [NK215]
KINOMEscan DAPK2 [1]: 7
KINOMEscan GRK2 [2]: 0
KINOMEscan CSNK1G3 [3]: 12
KINOMEscan DCLK2 [4]: 0
KINOMEscan EPHA8 [5]: 7
KINOMEscan WEE1 [6]: 23
KINOMEscan BTK [7]: 0
